Some results are limits rather than exact numbers.

This test deals with Human Factor D (Homo sapiens (Human), UniProt P00746). The test can be described thus: Human Factor D Assay. Particulars: Table 7; read-out: IC5 (Stars). It is filed as biochemical. Summed up: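 Serum-purified human factor D (80 nM final) preincubated with compound 5 min at room temperature in 50 mM Tris, 1 M NaCl, pH 7.5. Z-L-Lys-SBzl and DTNB added at 100 μM each; A405 followed every 30 s for 30 min. IC50 by nonlinear regression of rates.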
Sequence of Human Factor D (P00746 26-253): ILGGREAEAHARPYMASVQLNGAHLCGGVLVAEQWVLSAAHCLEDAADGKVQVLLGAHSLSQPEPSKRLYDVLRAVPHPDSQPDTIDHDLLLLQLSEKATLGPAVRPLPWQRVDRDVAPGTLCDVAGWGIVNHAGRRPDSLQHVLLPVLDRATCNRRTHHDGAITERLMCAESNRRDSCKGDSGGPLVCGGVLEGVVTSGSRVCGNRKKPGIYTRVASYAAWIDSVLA
In the case of `CC(=O)c1nn(CC(=O)N2C[C@H](F)C[C@H]2C(=O)Nc2nc(Br)ccc2C)c2cc(OCP(=O)(O)O)ccc12` [Compound T-130, (((3-acetyl-1-(2-((2S,4R)-2-((6-bromo-3-methylpyridin-2-yl)carbamoyl)-4-fluoropyrrolidin-1-yl)-2-oxoethyl)-1H-indazol-6-yl)oxy)methyl)phosphonic acid], the IC50 was below 1 µM. The result for `CC(=O)c1nn(CC(=O)N2C[C@H](F)C[C@H]2C(=O)NCc2cccc(Cl)c2F)c2cc(OCP(=O)(O)O)ccc12` [Compound T-131, (((3-acetyl-1-(2-((2S,4R)-2-((3-chloro-2-fluorobenzyl)carbamoyl)-4-fluoropyrrolidin-1-yl)-2-oxoethyl)-1H-indazol-6-yl)oxy)methyl)phosphonic acid] reads below 1 µM. In the case of `CC(=O)c1nn(CC(=O)N2[C@H](C(=O)Nc3nc(Br)ccc3C)C[C@@]3(C)C[C@@H]23)c2cc(OCP(=O)(O)O)ccc12` [Compound T-132, (((3-acetyl-1-(2-((1R,3S,5R)-3-((6-bromo-3-methylpyridin-2-yl)carbamoyl)-5-methyl-2-azabicyclo[3.1.0]hexan-2-yl)-2-oxoethyl)-1H-indazol-6-yl)oxy)methyl)phosphonic acid], the IC50 was below 1 µM.

On to `CC(=O)c1nn(CC(=O)N2C(C(=O)Nc3nc(Br)ccc3C)C[C@@]3(Cn4cc(C5CC5)nn4)C[C@@H]23)c2cnccc12` (stereo partly drawn) [Compound T-139, (1R,3S,5R)-2-(2-(3-acetyl-1H-pyrazolo[3,4-c]pyridin-1-yl)acetyl)-N-(6-bromo-3-methylpyridin-2-yl)-5-((4-cyclopropyl-1H-1,2,3-triazol-1-yl)methyl)-2-azabicyclo[3.1.0]hexane-3-carboxamide], for which the IC50 is below 1 µM. In the case of `COc1cc(CC(=O)N2[C@H](C(=O)Nc3nc(Br)ccc3C)C[C@@]3(C)C[C@@H]23)cc(-c2cnc(OC)nc2)c1` [Compound T-153, (1R,3S,5R)-N-(6-bromo-3-methylpyridin-2-yl)-2-(2-(3-methoxy-5-(2-methoxypyrimidin-5-yl)phenyl)acetyl)-5-methyl-2-azabicyclo[3.1.0]hexane-3-carboxamide] it was 1 to 10 µM; in that of `Cc1ccc(Br)nc1NC(=O)[C@@H]1C[C@@]2(C)C[C@H]2N1C(=O)Cc1ccc2[nH]nc(Cl)c2c1` [Compound T-155, (1R,3S,5R)-N-(6-bromo-3-methylpyridin-2-yl)-2-(2-(3-chloro-1H-indazol-5-yl)acetyl)-5-methyl-2-azabicyclo[3.1.0]hexane-3-carboxamide], 1 to 10 µM; in that of `Cc1ccc(Br)nc1NC(=O)[C@@H]1C[C@@]2(C)C[C@H]2N1C(=O)Cc1ccc2[nH]nc(C(=O)O)c2c1` [Compound T-158, 5-(2-((1R,3S,5R)-3-((6-bromo-3-methylpyridin-2-yl)carbamoyl)-5-methyl-2-azabicyclo[3.1.0]hexan-2-yl)-2-oxoethyl)-1H-indazole-3-carboxylic acid], 1 to 10 µM. Consider `Cc1ncc(-c2cc(CC(=O)N3C[C@H](F)C[C@H]3C(=O)Nc3cccc(Br)n3)cc(C(N)=O)c2)cn1` [Compound T-167, (2S,4R)-N-(6-bromopyridin-2-yl)-1-(2-(3-carbamoyl-5-(2-methylpyrimidin-5-yl)phenyl)acetyl)-4-fluoropyrrolidine-2-carboxamide], for which the IC50 was in the range of 1 to 10 µM.

Turning to `Cc1ncc(-c2cc(CC(=O)N3[C@H](C(=O)Nc4nc(Br)ccc4C)C[C@@]4(C)C[C@@H]34)cc(C(N)=O)c2)cn1` [Compound T-169, (1R,3S,5R)-N-(6-bromo-3-methylpyridin-2-yl)-2-(2-(3-carbamoyl-5-(2-methylpyrimidin-5-yl)phenyl)acetyl)-5-methyl-2-azabicyclo[3.1.0]hexane-3-carboxamide], the IC50 lay in the range of 1 to 10 µM. In the case of `Cc1ncc(-c2cc(C#N)cc(CC(=O)N3C[C@H](F)C[C@H]3C(=O)Nc3cccc(Br)n3)c2)cn1` [Compound T-170, (2S,4R)-N-(6-bromopyridin-2-yl)-1-(2-(3-cyano-5-(2-methylpyrimidin-5-yl)phenyl)acetyl)-4-fluoropyrrolidine-2-carboxamide] it was 1 to 10 µM; in that of `Cc1ncc(-c2cc(C#N)cc(CC(=O)N3[C@H](C(=O)Nc4nc(Br)ccc4C)C[C@@]4(C)C[C@@H]34)c2)cn1` [Compound T-171, (1R,3S,5R)-N-(6-bromo-3-methylpyridin-2-yl)-2-(2-(3-cyano-5-(2-methylpyrimidin-5-yl)phenyl)acetyl)-5-methyl-2-azabicyclo[3.1.0]hexane-3-carboxamide], 1 to 10 µM. Take `Cc1ncc(-c2cc(CC(=O)N3C[C@H](F)C[C@H]3C(=O)Nc3cccc(-c4ccccc4Cl)c3F)cc(OCC(=O)O)c2)cn1` [Compound T-176, 2-(3-(2-((2S,4R)-2-((2′-chloro-2-fluoro-[1,1′-biphenyl]-3-yl)carbamoyl)-4-fluoropyrrolidin-1-yl)-2-oxoethyl)-5-(2-methylpyrimidin-5-yl)phenoxy)acetic acid]: the IC50 is 1 to 10 µM. In the case of `Cc1ccc(Br)nc1NC(=O)[C@@H]1C[C@@]2(CNC(=O)COCCOCCNC(=O)COCCOCCNC(=O)CC[C@H](NC(=O)CCCCCCCCCCCCCCCCC(=O)O)C(=O)O)C[C@H]2N1C(=O)Cn1nc(C(N)=O)c2cc(C#Cc3ncc(F)cn3)ccc21` [Compound T-177, (S)-1-((1R,3S,5R)-3-((6-bromo-3-methylpyridin-2-yl)carbamoyl)-2-(2-(3-carbamoyl-5-((5-fluoropyrimidin-2-yl)ethynyl)-1H-indazol-1-yl)acetyl)-2-azabicyclo[3.1.0]hexan-5-yl)-24-carboxy-3,12,21,26-tetraoxo-5,8,14,17-tetraoxa-2,11,20,25-tetraazatritetracontan-43-oic acid] it was below 1 µM.

The values are drawn from US11447465B2, “Pharmaceutical compounds for treatment of medical disorders” (Achillion Pharmaceuticals, Inc., priority 2017, dated 2022).
